From US9233927B2 (TEVA PHARMACEUTICAL INDUSTRIES, LTD., priority 2013, dated 2016)
Read-outs that look alike come from different tables or passages of the source. Blank lines part the entries; values can stand above or below the compound they belong to.

What was measured:
[1] = prior art U.S. Pat. No. 7,884,208, cited from earlier work
[2] = Particle size distribution by Malvern laser diffraction (Mastersizer S); type: physicochemical; details: for D(0.9), PSD by Malvern / d(0.1), PSD by Malvern / d(0.5), PSD by Malvern: Modified Pilot Scale, 2.5 kg batch
Protocol: The particle size distributions were measured by Malvern Laser Diffraction, using the Mastersizer S model. Laser diffraction relies on the fact that diffraction angle of light is inversely proportional to particle size. Properties of particles are measured and interpreted as measurements of a sphere (a sphere being the only shape that can be described by one unique number). In addition, laser diffraction calculates a particle size distribution based around volume terms, thus eliminating particle count from the determination of particle size. The Mastersizer S model measures particles using a single technique and a single range setting.
D(0.1) is the particle size, in microns, below which 10% by volume distribution of the population is found. D(0.5) is the particle size, in microns, below which 50% by volume distribution of the population is found. D(0.9) is the particle size, in microns, below which 90% by volume distribution of the population is found.

[3] = prior art U.S. Pat. No. 7,884,208; cited from earlier work
[4] = tested on: acute experimental autoimmune encephalomyelitis (aEAE) model; details: U.S. Pat. No. 6,077,851; cited from earlier work
[5] = Laboratory scale crystallization, 25 g crude
[6] = starting material of pilot scale process
[7] = Production scale crystallization

SMILES: CCN(C(=O)c1c([O-])c2c(Cl)cccc2n(C)c1=O)c1ccccc1.[Na+] [Example 15 from U.S. Pat. No. 7,884,208]
- D(0.9), PSD by Malvern ([1]; Laboratory Scale 25 g batch): 51.8 um
- d(0.1), PSD by Malvern ([1]; Laboratory Scale 25 g batch): 6.1 um
- d(0.5), PSD by Malvern ([1]; Laboratory Scale 25 g batch): 21.2 um

- PSD D(0.1) [2, 5]: 2.3 μm
SMILES: CCN(C(=O)c1c([O-])c2c(Cl)cccc2n(C)c1=O)c1ccccc1.[Na+] [Laboratory Scale Batch A]

SMILES: CCN(C(=O)c1c([O-])c2c(Cl)cccc2n(C)c1=O)c1ccccc1.[Na+] [Example 13 of U.S. Pat. No. 7,884,208]
- Tapped Density (in words) [3]: high

- D(0.9), PSD by Malvern [2]: 33.9 um
- d(0.1), PSD by Malvern [2]: 4.1 um
- d(0.5), PSD by Malvern [2]: 13.5 um
SMILES: CCN(C(=O)c1c([O-])c2c(Cl)cccc2n(C)c1=O)c1ccccc1.[Na+] [Pilot Scale Batch B]

- d(0.1) [2, 6]: 1-2 μ
- d(0.5) [2, 6]: 5-11 μ
- d(0.9) [2, 6]: 20-35 μ
SMILES: CCN(C(=O)c1c([O-])c2c(Cl)cccc2n(C)c1=O)c1ccccc1.[Na+] [crude laquinimod sodium]

SMILES: CCN(C(=O)c1c([O-])c2c(Cl)cccc2n(C)c1=O)c1ccccc1.[Na+] [Example 14 of U.S. Pat. No. 7,884,208]
- Tapped Density (in words) [3]: undesired
- size of 10% or more of the total amount by volume of the particles [1]: less than 5 microns

SMILES: CCN(C(=O)c1c(O)c2c(Cl)cccc2n(C)c1=O)c1ccccc1 [Laquinimod, N-ethyl-N-phenyl-1,2,-dihydro-4-hydroxy-5-chloro-1-methyl-2-oxoquinoline-3-carboxamide]
- effectiveness in aEAE model [4]: effective

- D(0.9), PSD by Malvern [2]: 33.8 um
- d(0.1), PSD by Malvern [2]: 3.3 um
- d(0.5), PSD by Malvern [2]: 12.9 um
SMILES: CCN(C(=O)c1c([O-])c2c(Cl)cccc2n(C)c1=O)c1ccccc1.[Na+] [Pilot Scale Batch A]

- PSD D(0.1) [2, 7]: 4.1 μm
- PSD D(0.5) [2, 7]: 14.0 μm
- PSD D(0.9) [2, 7]: 32.0 μm
SMILES: CCN(C(=O)c1c([O-])c2c(Cl)cccc2n(C)c1=O)c1ccccc1.[Na+] [Batch C]

- PSD D(0.1) [2, 5]: 2.6 μm
SMILES: CCN(C(=O)c1c([O-])c2c(Cl)cccc2n(C)c1=O)c1ccccc1.[Na+] [Laboratory Scale Batch B]

- PSD D(0.1) [2, 7]: 2.5 μm
- PSD D(0.5) [2, 7]: 9.5 μm
- PSD D(0.9) [2, 7]: 21.0 μm
SMILES: CCN(C(=O)c1c([O-])c2c(Cl)cccc2n(C)c1=O)c1ccccc1.[Na+] [Batch E]
